Experimental data published in patent publication US7973219B2, “Method for producing transgenic plants resistant to weed control compounds which disrupt the porphyrin pathways of plants” (Sumitomo Chemical Company, Limited, priority 1998, dated 2011).
Like-named read-outs stand apart in the source and are kept apart here.

Test system: E. coli BT3/pACYCSP+pTV118N strain
Experiment: Growth of E. coli BT3/pACYCSP+pTV118N (vector control) with herbicidal compound
Type: cell-based
Conditions: Escherichia coli, 18 h, 18 hours culture
Excerpt: According to the description of Gibson, L. C. D. et al., Proc. Natl. Acad. Sci. USA, 92; p 1941 (1995), the DNA fragment containing bchH gene prepared in Example 1 was digested with the restriction enzymes NdeI and BglII. The resultant DNA fragment was inserted between NdeI restriction site and BamHI restriction site of expression vector pET11a (manufactured by Stratagene) to obtain plasmid pETBCH (FIG. 1). This plasmid pETBCH was introduced into E. coli BL21(DE3) strain competent cells (manufactured by Stratagene) according to the manual attached to the competent cells to obtain E. coli BL21(DE3)/pETBCH strain. The strain was inoculated into 1.5 ml LB liquid culture medium (1% tryptone, 0.5% yeast extract, 0.5% NaCl) containing 100 μg/ml ampicillin in a tube (14×10 mm), and the tube was covered with aluminum foil (hereinafter referred to as dark conditions), cultured with shaking at 37° C. under light of fluorescent lamp (about 8000 lux). When the absorbance at 600 nm of the liquid culture medium became about 0.6, isopropyl β-D-thiogalactopyranoside (IPTG) was added to the liquid culture medium so that the final concentration was 0.4 mM, and the culture was continued for about additional 20 hours. […] In contrast to this, when E. coli BL21(DE3)/pETBCH strain was cultured according to the same manner (with IPTG) except that the tube was not covered with aluminum foil (hereinafter referred to as light conditions), E. coli grew and turned red as above.
Plasmids pTVBCH and pTV118N respectively were introduced into E. coli BT3/pACYCSP strain prepared in Example 3 according to the method described in Hanahan, D. J., Mol. Biol., 166; p 557 (1983). The resultant E. coli were cultured in YPT medium containing 100 μg/ml ampicillin, 15 μg/ml chloramphenicol and 10 μg/ml kanamycin to obtain E. coli BT3/pACYCSP+pTVBCH strain bearing plasmids pACYCSP and pTVBCH, and E. coli BT3/pACYCSP+pTV118N strain bearing plasmids pACYCSP and pTV118N.
These strains were inoculated into YPT medium containing 10 or 1 ppm of the PPO inhibitory-type herbicidal compound represented by the above Structure 8, 100 μg/ml ampicillin, 15 μg/ml chloramphenicol, 10 μg/ml kanamycin, 10 μg/ml hemin and 50 μg/ml aminolevulinic acid, cultured under dark conditions or light conditions according to the same manner as in Example 2. Then, 18 hours after initiation of culture, the absorbance of the liquid culture medium was measured at 600 nm. By taking the absorbance of the medium without the herbicidal compound as 1, the relative value of the absorbance of the medium containing the herbicidal compound was calculated.
Further, these strains were inoculated into YPT medium containing PPO inhibitory-type herbicidal compounds represented by the above Structures 1, 14, 15, 18-22, 29, 32, 33, 34 and 36, respectively, 100 μg/ml ampicillin, 15 μg/ml chloramphenicol, 10 μg/ml kanamycin, 10 μg/ml hemin and 50 μg/ml aminolevulinic acid, cultured under dark conditions or light conditions similar to the Example 2. Then, 18 hours after initiation of culture, the absorbance of liquid culture medium was measured at 600 nm. By taking the absorbance of the medium without the herbicidal compound as 1, the relative value of the absorbance of the medium containing the herbicidal compound was calculated.
Plasmids pTVGMP and pTV118N prepared in Example 11 were introduced into E. coli BT3/pACYCSP strain prepared in Example 3 respectively according to the method described in Flanahan, D. J., Mol. Biol., 166; p 557 (1983). E. coli BT3/pACYCSP+pTVGMP strain bearing plasmids pACYCSP and pTVGMP, and E. coli BT3/pACYCSP+pTV118N strain bearing plasmids pACYCSP and pTV118N were obtained by culturing the above strains in YPT medium containing 100 μg/ml ampicillin, 15 μg/ml chloramphenicol and 10 μg/ml kanamycin. […]

[1] = read-out: Relative absorbance, in the dark, Table 2
[2] = read-out: Relative absorbance, in the dark, Table 7 (Example 12)
[3] = read-out: Relative absorbance, in the dark, Table 9 (Example 17)
[4] = read-out: Relative absorbance, in the dark, Table 11 (Example 20)
[5] = read-out: Relative absorbance, in the dark, Table 13 (Example 23)
[6] = read-out: Relative absorbance, in the dark, Table 14 (Example 27)
[7] = read-out: Relative absorbance, in the light, Table 2
[8] = read-out: Relative absorbance, in the light, Table 7 (Example 12)
[9] = read-out: Relative absorbance, in the light, Table 9 (Example 17)
[10] = read-out: Relative absorbance, in the light, Table 11 (Example 20)
[11] = read-out: Relative absorbance, in the light, Table 13 (Example 23)
[12] = read-out: Relative absorbance, in the light, Table 14 (Example 27)

C#CCOc1cc(N2C(=O)C3=C(CCCC3)C2=O)c(F)cc1Cl [Structure 8]
activity at 1 ppm [1]: 77%
activity at 1 ppm [2]: 91%
activity at 1 ppm [3]: 91%
activity at 1 ppm [4]: 91%
activity at 1 ppm [5]: 91%
activity at 1 ppm [6]: 98%
activity at 1 ppm (read-out: Relative absorbance, in the dark, Table 15 (Example 31)): 93%
activity at 1 ppm (read-out: Relative absorbance, in the dark, Table 16 (Example 31)): 81%
activity at 10 ppm [1]: 68%
activity at 10 ppm [2]: 89%
activity at 10 ppm [3]: 80%
activity at 10 ppm [4]: 80%
activity at 10 ppm [5]: 81%
activity at 10 ppm [6]: 96%
activity at 1 ppm [7]: 31%
activity at 1 ppm [8]: 9%
activity at 1 ppm [9]: 24%
activity at 1 ppm [10]: 24%
activity at 1 ppm [11]: 8%
activity at 1 ppm [12]: 16%
activity at 1 ppm (read-out: Relative absorbance, in the light, Table 15 (Example 31)): 7%
activity at 1 ppm (read-out: Relative absorbance, in the light, Table 16 (Example 31)): 15%
activity at 10 ppm [7]: 18%
activity at 10 ppm [8]: 5%
activity at 10 ppm [9]: 12%
activity at 10 ppm [10]: 12%
activity at 10 ppm [11]: 6%
activity at 10 ppm [12]: 6%
